Assay results from patent US20100120810A1, “COMPOUNDS AND METHODS FOR MODULATING RHO GTPASES” (priority 2007, published 2010).
Entries after “also recorded” stand apart in the source; their conditions may differ. Like-named read-outs stand apart in the source and are kept apart here.

What was measured:
[1] = biological target: T1, Rac1 activated by DH/PH domain of Guanine nucleotide Exchange Factor Tiam1 (Rac1/Tiam1) (Homo sapiens, UniProt P63000); assay: Nucleotide binding assay: BODIPY-GTP binding to Rac1 activated by Tiam1 DH/PH; format: biochemical; conditions: for inhibition at 50 µM: read-out: Rac1 % inhibition of BODIPY-GTP binding
T1 construct: made in house; host or cells: E. coli BL21 Codon+RIL
Description: (§1) Fluorescence of GTP analog BODIPY-GTP increases when it binds to small G proteins. This property was used to assess ability of compounds to inhibit nucleotide binding to Rac1, Rac1b and Cdc42. 2 μM GST-Rac1 and 6 μg His6-Tiam1-DH/PH were diluted in a buffer containing 20 mM Tris, 50 mM NaCl, and 1 mM MgCl2. This mixture was loaded in a 96-well plate. Fluorescence recording were started (λEx: 485 nm; λEm: 538 nm) using a spectrofluorimeter (Fluoroskan; Thermolab Systems). Assay was initiated by the addition of 2 μM BODIPY-GTP with or without various doses of test compound. Fluorescence values were recorded, and data were processed as follows: background fluorescence (unbound BODIPY-GTP) was retrieved from fluorescence values.
(§2) This assay allows determining whether compounds can inhibit the binding of a fluorescent nucleotide to recombinant small G proteins of interest. The effect of various alkaloid compounds on binding of BODIPY-GTP to Rac1 activated by DH/PH domain of Guanine nucleotide Exchange Factor Tiam1 (Rac1/Tiam1), Rac1b and Cdc42 is described below.

[2] = biological target: T2, Rac1b (Homo sapiens, UniProt P63000); assay: Nucleotide binding assay: BODIPY-GTP binding to Rac1b; format: biochemical; conditions: for IC50: dose-response study; for inhibition at 50 µM: read-out: Rac1b % inhibition of BODIPY-GTP binding; for selectivity for Rac1b: versus Rac1 or Cdc42
T2 construct: GST (N); made in house; host or cells: E. coli BL21 Codon+RIL
Description: as §1, §2

[3] = biological target: T3, Cdc42 (Homo sapiens, UniProt P60953); assay: Nucleotide binding assay: BODIPY-GTP binding to Cdc42; format: biochemical; conditions: for inhibition at 50 µM: read-out: Cdc42 % inhibition of BODIPY-GTP binding
T3 construct: GST (N); made in house; host or cells: E. coli BL21 Codon+RIL
T3 sequence (P60953 whole entry, species assumed): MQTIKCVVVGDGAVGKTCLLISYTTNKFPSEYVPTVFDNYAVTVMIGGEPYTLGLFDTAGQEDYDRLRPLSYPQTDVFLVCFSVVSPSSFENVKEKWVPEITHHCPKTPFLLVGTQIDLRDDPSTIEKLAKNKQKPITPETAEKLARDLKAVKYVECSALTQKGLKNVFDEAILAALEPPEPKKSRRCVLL
Description: as §1, §2

[4] = biological target: T4, HEK293 cells overexpressing human Rac1b (Homo sapiens, UniProt P63000); assay: Rac1b activation assay (G-LISA); format: cell-based
T4 construct: expressed in transfected cells; host or cells: HEK293
Description: Rac1b activation assay: HEK293 cells overexpressing human Rac1b were plated in 100 mm diameter dishes and grown for 5 days in MEM medium supplemented with 10% FBS, L-Glutamine and antibiotics. Cells were then treated with 50 μM of compounds or the solvent for 5 minutes, and the GTP loading of Rac1b was measured using a Rac Activation Assay Kit (Cytoskeleton) according to manufacturer's recommendations. Briefly, this assay uses a 96-well plate coated with RBD domain of Rho-family effector proteins. […] The signal is then developed with OPD reagent.

[5] = system: HCT116 cell line; assay: Soft agar assay (anchorage-independent colony formation); format: cell-based; conditions: HCT116, 7 days
From the text: Colony formation in soft agar is the most widely used assay to evaluate anchorage-independent growth potential and represents one of the best in vitro assays that correlates strongly with in vivo tumorigenic cell growth potential. Normal cells require adherence and spreading onto a solid substratum in order to remain viable and proliferate. In contrast, cancer cell line HCT116 (ATCC clone number CCL-247) lost this requirement and therefore can form proliferating colonies of cells when suspended in a semisolid agar medium. The assay was performed in 24-well plates, using duplicates wells for each compound concentration. Briefly, a 0.5% Bacto™ Agar (BD Biosciences) bottom layer (prepared in HCT116 complete growth medium supplemented or not with the tested compound) was poured first and allowed to harden (0.3 ml per well). HCT116 were trypsinized to generate a uniform single cell suspension. Five×10^3 cells per well were resuspended in 0.3% agar supplemented with complete growth medium, with or without several compound concentrations to form the top layer (0.3 ml per well). HCT116 were allowed to grow for 7 days in these conditions and then analysed for colonies formation. Analysis was performed from pictures taken under a microscope that are representative from 2 different fields of the well. For each field, 2 different focal plans were taken and were merged using ImageJ software. The number of colonies were scored and colonies' size were measured. IC50 were determined for the number and size of colonies using GraphPad Prism (GraphPad) software. Data are mean values of 2 to 3 independent experiments.

[6] = system: protein kinase C (PKC); conditions: cited from earlier work
[7] = system: NIH3T3 and PC-3 cells; conditions: cited from earlier work
[8] = biological target: RhoA (Homo sapiens, UniProt P61586); conditions: cited from earlier work
Sequence of RhoA (P61586 whole entry, species assumed): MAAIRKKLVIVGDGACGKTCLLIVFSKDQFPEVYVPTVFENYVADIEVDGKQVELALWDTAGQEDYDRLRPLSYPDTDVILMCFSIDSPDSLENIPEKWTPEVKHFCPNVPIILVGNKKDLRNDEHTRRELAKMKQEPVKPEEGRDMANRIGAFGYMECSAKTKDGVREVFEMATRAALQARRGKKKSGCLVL

[9] = Homo sapiens, HCT-116, 168 h, read-out: Soft agar assay IC50, Clone Number
[10] = Homo sapiens, HCT-116, 168 h, read-out: Soft agar assay IC50, Clone Size
[11] = final concentration of 50 μM, Rac1/Tiam1

Q: For C[n+]1cc2c3c(ccc2c2ccc4cc5c(cc4c21)OCO5)OCO3.O.[Cl-] [Compound 13, 13-methyl-[1,3]benzodioxolo[5,6-c]-1,3-dioxolo[4,5-i]phenanthridinium chloride hydrate, reference compound], which IC50 ([1]; dose-response study) is on record?
A: 57.8 ± 4.3 µM

Q: And the inhibition at 50 µM [1]?
A: 45 ± 4%

Q: And the IC50 [2]?
A: 4.6 ± 0.4 µM

Q: And the “fold more active on Rac1b than on Rac1/Tiam1” value ([2]; from IC50s)?
A: 13 fold

Q: What about the “times more active on Rac1b than on Cdc42” value ([2]; from IC50s) of the same molecule?
A: 6 times

Q: What about the inhibition at 50 µM [2] of the same molecule?
A: 100%

Q: And the “selectivity for Rac1b” value [2]?
A: some significant selectivity for Rac1b

Q: And the IC50 ([3]; dose-response study)?
A: 32.1 ± 0.7 µM

Q: And the inhibition at 50 µM [3]?
A: 63 ± 2%

Q: What about the inhibition at 50 µM ([4]; HEK293, read-out: G-LISA % inhibition @ 50 μM) of the same molecule?
A: 50 ± 3%

Q: And the IC50 [5, 9]?
A: 1.9 ± 0.6 µM

Q: What about the IC50 [5, 10] of the same molecule?
A: 1.5 ± 0.2 µM

Q: And the “activity against PKC” value [6]?
A: 217 μm

Q: With Cl.Oc1cc2c(cc1O)CN(Cc1cccc(O)c1O)CC2 [Compound 19, 2-(2,3-Dihydroxybenzyl)-6,7-dihydroxy-1,2,3,4-tetrahydroisoquinolinium chloride] as the molecule, how does the inhibition at 50 µM [1, 11] read?
A: 9 ± 2%

Q: What about the inhibition at 50 µM ([2]; final concentration of 50 μM) of the same molecule?
A: 19 ± 3%

Q: And the inhibition at 50 µM ([3]; final concentration of 50 μM)?
A: 17 ± 3%

Q: What about the melting point of the same molecule?
A: 178.8 °C

Q: With CCN(CC)CCCC(C)Nc1nc(C)cc(Nc2ccc3nc(C)cc(N)c3c2)n1 (stereo not shown) [NSC 23766, reference compound] as the molecule, how does the IC50 ([5]; read-out: Soft agar assay IC50, Clone Number) read?
A: 64.2 ± 4.8 µM

Q: What about the IC50 ([5]; read-out: Soft agar assay IC50, Clone Size) of the same molecule?
A: 27.9 ± 5 µM

Q: And the “effective dose, Rac1-mediated cellular functions” value [7]?
A: 50 to 100 µM

Q: What about the “effect on RhoA activation” value [8] of the same molecule?
A: no effect

Q: Which results are given for COc1ccc2c(c[n+](C)c3c4cc5c(cc4ccc23)OCO5)c1OC.[Cl-] [Compound 14, 1,2-dimethoxy-N-methyl[1,3]benzodioxolo[5,6-c]phenanthridinium chloride, reference compound]?
A: maximum inhibition on Rac1/Tiam1 ([1]; dose-response study (1-2-5-10-25-50-75-100 μM)): around 25%; inhibition at 50 µM [1, 11]: 25 ± 6%; IC50 [2]: 6.7 ± 0.9 µM; inhibition at 50 µM ([2]; final concentration of 50 μM): 100%; selectivity for Rac1b [2]: highly selective for Rac1b; also recorded: some significant selectivity for Rac1b; inhibition at 50 µM ([3]; final concentration of 50 μM): 35 ± 10%; inhibition at 50 µM ([4]; HEK293, 50 μM, 5 minutes, GTP loading of Rac1b, read-out: G-LISA % inhibition @ 50 μM): 40 ± 10%; IC50 [5, 9]: 2.4 ± 0.2 µM; IC50 [5, 10]: 2 ± 0.3 µM; activity against PKC [6]: 1 μm
